Results reported in PubChem BioAssay AID248 (DTP/NCI, 2004).
Inconclusive results and toxic doses are left out. No stated cut-off is given here; in the data, active means T/C of 150% or more; inactive means T/C below 125%.

Tested on: L1210 leukemia ip in BDF1 mice, survival T/C
Experiment: NCI In Vivo Anticancer Drug Screen. Data for tumor model L1210 Leukemia (intraperitoneal) in B6D2F1 (BDF1) mice
Details: endpoint: mean survival time, higher = longer survival
Method in brief: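 Mice bearing the transplanted tumor received compound or vehicle. Survival of the treated group was divided by that of the vehicle-treated control group to give the ratio.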

[1] = dose: 50.0 mg/kg/injection, schedule: Q01DX009 (ip), vehicle: saline with Tween-80
[2] = dose: 100.0 mg/kg/injection, schedule: Q01DX009 (ip), vehicle: saline with Tween-80
[3] = dose: 200.0 mg/kg/injection, schedule: Q01DX009 (ip), vehicle: saline with Tween-80
[4] = dose: 100.0 mg/kg/injection, schedule: Q01DX009 (ip), vehicle: Klucel (hydroxypropylcellulose) (HPC)
[5] = dose: 100.0 mg/kg/injection, schedule: Q04DX003 (ip), vehicle: Klucel (hydroxypropylcellulose) (HPC)
[6] = dose: 200.0 mg/kg/injection, schedule: Q01DX009 (ip), vehicle: Klucel (hydroxypropylcellulose) (HPC)
[7] = dose: 200.0 mg/kg/injection, schedule: Q04DX003 (ip), vehicle: Klucel (hydroxypropylcellulose) (HPC)
[8] = dose: 400.0 mg/kg/injection, schedule: Q01DX009 (ip), vehicle: Klucel (hydroxypropylcellulose) (HPC)
[9] = dose: 400.0 mg/kg/injection, schedule: Q04DX003 (ip), vehicle: Klucel (hydroxypropylcellulose) (HPC)
[10] = dose: 25.0 mg/kg/injection, schedule: Q01DX009 (ip), vehicle: Klucel (hydroxypropylcellulose) (HPC)
[11] = dose: 100.0 mg/kg/injection, schedule: Q04DX003 (ip), vehicle: saline
[12] = dose: 200.0 mg/kg/injection, schedule: Q04DX003 (ip), vehicle: saline
[13] = dose: 50.0 mg/kg/injection, schedule: Q01DX009 (ip), vehicle: Klucel (hydroxypropylcellulose) (HPC)

Measured: T/C

Cc1ccc(N=Nc2ccc(C)cc2NC(=O)/C=C/c2ccccc2)cc1
inactive: [1] 96 % of control | [2] 90 % of control | [3] 86 % of control

O=C1NC(=O)C2(CCCc3ccc(N(CCCl)CCCl)cc32)N1 (configuration not stated)
inactive: dose: 30.0 mg/kg/injection, schedule: Q01DX015 (ip), vehicle: carboxymethylcellulose (CMC) 102 % of control | dose: 60.0 mg/kg/injection, schedule: Q01DX015 (ip), vehicle: carboxymethylcellulose (CMC) 120 % of control | dose: 120.0 mg/kg/injection, schedule: Q01DX015 (ip), vehicle: carboxymethylcellulose (CMC) 123 % of control | dose: 240.0 mg/kg/injection, schedule: Q01DX015 (ip), vehicle: carboxymethylcellulose (CMC) 107 % of control

CC12CCC3c4ccccc4CCC3(CO1)C2 (configuration not stated)
inactive: [4] 105 % of control | [5] 95 % of control | [6] 105 % of control | [7] 106 % of control | [8] 104 % of control | [9] 95 % of control

Cc1ccc(S(=O)(=O)N2CC(=O)CCc3ccc(Cl)cc32)cc1
inactive: dose: 75.0 mg/kg/injection, schedule: Q01DX009 (ip), vehicle: other 100 % of control | dose: 150.0 mg/kg/injection, schedule: Q01DX009 (ip), vehicle: other 100 % of control | dose: 300.0 mg/kg/injection, schedule: Q01DX009 (ip), vehicle: other 100 % of control

COc1ccc2c(n1)Sc1c(Cl)nc(N)nc1N2
inactive: dose: 100.0 mg/kg/injection, schedule: Q01DX001 (ip), vehicle: Klucel (hydroxypropylcellulose) (HPC) 97 % of control | dose: 200.0 mg/kg/injection, schedule: Q01DX001 (ip), vehicle: Klucel (hydroxypropylcellulose) (HPC) 97 % of control | dose: 400.0 mg/kg/injection, schedule: Q01DX001 (ip), vehicle: Klucel (hydroxypropylcellulose) (HPC) 98 % of control

COC(=O)C1=C(C(=O)OC)C2(C)OC1C1OC12 (configuration not stated)
inactive: dose: 12.5 mg/kg/injection, schedule: Q01DX009 (ip), vehicle: Klucel (hydroxypropylcellulose) (HPC) 97 % of control | [10] 90 % of control

Cc1n[nH]c(=S)n1C
inactive: [11] 108 % of control | [12] 113 % of control

CNC(Cc1ccccc1)c1ccccc1 (configuration not stated)
inactive: dose: 25.0 mg/kg/injection, schedule: Q01DX009 (ip), vehicle: saline with Tween-80 94 % of control | [1] 101 % of control | [2] 99 % of control

CCC[n+]1nsc2ccccc21
inactive: dose: 100.0 mg/kg/injection, schedule: Q01DX001 (ip), vehicle: saline 101 % of control

C(=NCc1ccccc1)C1(c2ccccc2)OC1c1ccccc1 (configuration not stated)
inactive: [5] 91 % of control | [7] 87 % of control | [9] 88 % of control

CC(C)CCCC(C)C1CCC2C3CCC4=C/C(=N/NC(N)=O)CCC4(C)C3CCC12C (configuration not stated)
inactive: [13] 97 % of control | [4] 90 % of control | [6] 88 % of control

CCC(=O)OC1(c2ccccc2)CCN(C)CC1C (configuration not stated)
inactive: dose: 5.0 mg/kg/injection, schedule: Q01DX001 (ip), vehicle: saline 105 % of control | dose: 10.0 mg/kg/injection, schedule: Q01DX001 (ip), vehicle: saline 105 % of control | dose: 20.0 mg/kg/injection, schedule: Q01DX001 (ip), vehicle: saline 102 % of control | dose: 40.0 mg/kg/injection, schedule: Q01DX001 (ip), vehicle: saline 103 % of control | dose: 80.0 mg/kg/injection, schedule: Q01DX001 (ip), vehicle: saline 102 % of control

CCOP(=O)(OCC)C(=O)C1C(C=C(C)C)C1(C)C (configuration not stated)
inactive: dose: 100.0 mg/kg/injection, schedule: Q04DX002 (ip), vehicle: saline 123 % of control | dose: 200.0 mg/kg/injection, schedule: Q04DX002 (ip), vehicle: saline 104 % of control | dose: 400.0 mg/kg/injection, schedule: Q04DX002 (ip), vehicle: saline 115 % of control

CCCCN=C(NCCCC)c1ccc(NC(=O)c2ccc(C(=O)Nc3ccc(C(=NCCCC)NCCCC)cc3)cc2)cc1
inactive: dose: 0.12 mg/kg/injection, schedule: Q01DX015 (ip), vehicle: methylcellulose (MC) 94 % of control | dose: 0.25 mg/kg/injection, schedule: Q01DX015 (ip), vehicle: methylcellulose (MC) 94 % of control | dose: 0.5 mg/kg/injection, schedule: Q01DX015 (ip), vehicle: methylcellulose (MC) 90 % of control | dose: 1.0 mg/kg/injection, schedule: Q01DX015 (ip), vehicle: methylcellulose (MC) 102 % of control | dose: 2.0 mg/kg/injection, schedule: Q01DX015 (ip), vehicle: methylcellulose (MC) 108 % of control | dose: 4.0 mg/kg/injection, schedule: Q01DX015 (ip), vehicle: methylcellulose (MC) 110 % of control | dose: 8.0 mg/kg/injection, schedule: Q01DX015 (ip), vehicle: methylcellulose (MC) 98 % of control

CC1(C)C=CC(C)(C)c2c(NS(=O)(=O)c3ccccc3)ccc(NS(=O)(=O)c3ccccc3)c21
inactive: [2] 97 % of control | [3] 92 % of control | dose: 400.0 mg/kg/injection, schedule: Q01DX009 (ip), vehicle: saline with Tween-80 94 % of control

CC(C)CNNCC(C)C
inactive: dose: 75.0 mg/kg/injection, schedule: Q01DX001 (ip), vehicle: other 103 % of control

COC1OC2COC(c3ccccc3)OC2C(O)C1OC(N)=S (configuration not stated)
inactive: dose: 25.0 mg/kg/injection, schedule: Q04DX002 (ip), vehicle: Klucel (hydroxypropylcellulose) (HPC) 98 % of control | dose: 50.0 mg/kg/injection, schedule: Q04DX002 (ip), vehicle: Klucel (hydroxypropylcellulose) (HPC) 98 % of control | dose: 100.0 mg/kg/injection, schedule: Q04DX002 (ip), vehicle: Klucel (hydroxypropylcellulose) (HPC) 88 % of control | dose: 200.0 mg/kg/injection, schedule: Q04DX002 (ip), vehicle: Klucel (hydroxypropylcellulose) (HPC) 100 % of control | dose: 400.0 mg/kg/injection, schedule: Q04DX002 (ip), vehicle: Klucel (hydroxypropylcellulose) (HPC) 96 % of control

Oc1ccc2c(c1)CCc1cn[nH]c1-2
inactive: dose: 100.0 mg/kg/injection, schedule: Q01DX001 (ip), vehicle: other 102 % of control | dose: 100.0 mg/kg/injection, schedule: Q01DX009 (ip), vehicle: other 98 % of control | dose: 200.0 mg/kg/injection, schedule: Q01DX001 (ip), vehicle: other 103 % of control | dose: 200.0 mg/kg/injection, schedule: Q01DX009 (ip), vehicle: other 96 % of control | dose: 400.0 mg/kg/injection, schedule: Q01DX001 (ip), vehicle: other 98 % of control | dose: 400.0 mg/kg/injection, schedule: Q01DX009 (ip), vehicle: other 94 % of control

CCOC(=O)C(=O)Cc1cnc2ccccc2n1
inactive: [4] 113 % of control | [5] 97 % of control | [6] 94 % of control | [7] 96 % of control | [8] 92 % of control | [9] 100 % of control

CCC1(C)C(=O)N(C)C(=O)N1Br (configuration not stated)
inactive: [10] 96 % of control | [13] 101 % of control | [5] 97 % of control

Cc1cc(N(CCO)Cc2ccccc2)nc2ccccc12
inactive: dose: 75.0 mg/kg/injection, schedule: Q01DX001 (ip), vehicle: saline 102 % of control

CCOC(C)C1C2CCCC(C)C21 (configuration not stated)
inactive: [11] 102 % of control | [12] 96 % of control | dose: 400.0 mg/kg/injection, schedule: Q04DX003 (ip), vehicle: saline 93 % of control

C[N+](C)(CC(=O)Nc1ccc(Cl)c(Cl)c1)CC(=O)c1ccc(Cl)cc1
inactive: dose: 6.25 mg/kg/injection, schedule: Q01DX009 (ip), vehicle: saline 96 % of control | dose: 12.5 mg/kg/injection, schedule: Q01DX009 (ip), vehicle: saline 96 % of control | dose: 25.0 mg/kg/injection, schedule: Q01DX009 (ip), vehicle: saline 89 % of control | dose: 100.0 mg/kg/injection, schedule: Q04DX003 (ip), vehicle: saline with Tween-80 92 % of control

CCn1c(=O)c2ccccc2c2cc([N+](=O)[O-])ccc21
inactive: [5] 90 % of control | [7] 97 % of control | [9] 97 % of control

O=[N+]([O-])c1ccc(N2N=NC(c3ccccc3)C2(c2ccccc2)N2CCOCC2)cc1 (configuration not stated)
inactive: dose: 150.0 mg/kg/injection, schedule: Q01DX001 (ip), vehicle: saline 89 % of control

O=C(OC1CCC1)c1ccc(N=Nc2ccccc2)cc1
inactive: dose: 75.0 mg/kg/injection, schedule: Q04DX002 (ip), vehicle: Klucel (hydroxypropylcellulose) (HPC) 102 % of control | dose: 150.0 mg/kg/injection, schedule: Q04DX002 (ip), vehicle: Klucel (hydroxypropylcellulose) (HPC) 102 % of control | dose: 300.0 mg/kg/injection, schedule: Q04DX002 (ip), vehicle: Klucel (hydroxypropylcellulose) (HPC) 86 % of control
